Data as given in ChEMBL document CHEMBL3137440, “DNDi T. cruzi fenarimol series dataset from which preclinical candidate EPL-BS0967 was identified (see also related datasets: CHEMBL3137386 and CHEMBL2448688)”.
Values after ≈ are worked out from the molar mass of the structure shown. Values joined by “and” are separate entries in the source; they are usually repeats but may differ in a detail not shown here. Equal values may be shown once.

Key:
[1] = (§1) DNDI: Stability, 4 hour; type: ADME, tissue-based; details: blood
[2] = (§2) DNDI: Metabolism; type: ADME, Microsome; details: rat, microsomes; for hepatic extraction ratio: read-out: EH
Trypanosoma cruzi [3] = assay: (§3) DNDI: Chagas in Vitro; type: functional, Tulahuen C4 (LacZ)
[4] = DNDI: Solubility in 0.01M HCl at pH 2 determined by nephelometry
[5] = DNDI: Solubility, 24 hour, 50 mM phosphate - pH 7.4, 37C; type: physicochemical; details: 50 mM phosphate buffer, read-out: Equilibrium
in vitro [6] = details: human, microsomes
[7] = DNDI: Protein binding in dog plasma; type: ADME, cell-free, Canis lupus familiaris; details: read-out: % bound
in vitro [8] = details: human, microsomes; remark: listed apart in the source
[9] = DNDI: Solubility, 24 hour, 20 mM Citrate - pH 3, 37C; type: physicochemical; details: 20 mM citrate buffer, read-out: Equilibrium
Leishmania donovani = assay: DNDI: Inhibition of formation of Leishmania donovani; type: functional, MHOM/ET/67/L82; set-up: concentration or dose not given beside the values
[10] = (§4) DNDI: Lipophilicity (gLogD) at pH 3; details: buffer, pH 3
[11] = DNDI: pKa; type: physicochemical; details: read-out: pKa(1)
[12] = (§5) DNDI: Solubility in phosphate buffer at pH 6.5 determined by nephelometry
Trypanosoma cruzi [13] = assay: as §3; type: functional, organism-based, Tulahuen C4 (LacZ)
in vitro [14] = details: mouse, microsomes
[15] = DNDI: Lipophilicity (gLogD) at pH 7.4; details: buffer, pH 7.4
[16] = DNDI: Protein binding in mouse plasma; type: ADME, cell-free; details: read-out: % bound
Cytochrome P450 1A2 = molecular target: T1, Cytochrome P450 1A2 (Homo sapiens, UniProt P05177); assay: (§6) DNDI: CYP Inhibition; type: ADME
T1 sequence (P05177 whole entry): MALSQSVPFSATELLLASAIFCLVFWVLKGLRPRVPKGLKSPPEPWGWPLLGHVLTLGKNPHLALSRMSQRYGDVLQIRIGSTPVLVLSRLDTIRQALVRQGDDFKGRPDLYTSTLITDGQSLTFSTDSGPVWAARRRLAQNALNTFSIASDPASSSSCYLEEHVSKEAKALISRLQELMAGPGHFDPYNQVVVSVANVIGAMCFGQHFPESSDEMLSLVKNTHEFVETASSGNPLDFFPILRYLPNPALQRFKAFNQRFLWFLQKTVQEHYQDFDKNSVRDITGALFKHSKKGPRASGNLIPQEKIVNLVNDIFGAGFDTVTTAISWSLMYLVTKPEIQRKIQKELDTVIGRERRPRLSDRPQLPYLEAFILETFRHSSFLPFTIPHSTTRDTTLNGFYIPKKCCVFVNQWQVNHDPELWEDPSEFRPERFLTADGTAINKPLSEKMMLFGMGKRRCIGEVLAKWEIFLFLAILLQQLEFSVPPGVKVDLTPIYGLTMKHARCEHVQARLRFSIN

Cytochrome P450 2D6 = Cytochrome P450 2D6 (Homo sapiens, UniProt P10635); assay: as §6; type: ADME
Chain of Cytochrome P450 2D6 (P10635 whole entry): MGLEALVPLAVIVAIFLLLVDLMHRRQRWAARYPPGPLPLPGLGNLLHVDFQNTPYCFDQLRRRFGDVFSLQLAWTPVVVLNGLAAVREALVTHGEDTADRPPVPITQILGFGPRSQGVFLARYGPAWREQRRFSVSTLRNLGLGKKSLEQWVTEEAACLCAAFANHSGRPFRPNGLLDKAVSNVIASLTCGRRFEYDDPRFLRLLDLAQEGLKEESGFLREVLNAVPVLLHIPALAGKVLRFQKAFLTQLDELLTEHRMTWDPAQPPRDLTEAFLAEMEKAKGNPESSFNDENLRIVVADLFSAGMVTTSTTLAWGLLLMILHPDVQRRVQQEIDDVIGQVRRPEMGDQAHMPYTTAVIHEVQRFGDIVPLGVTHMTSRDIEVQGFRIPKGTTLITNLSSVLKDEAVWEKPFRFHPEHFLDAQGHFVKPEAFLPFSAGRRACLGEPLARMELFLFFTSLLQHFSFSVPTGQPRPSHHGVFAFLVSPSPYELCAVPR

[17] = DNDI: Lipophilicity (eLogD) at pH 7.4; type: physicochemical; details: buffer
[18] = DNDI: Solubility, 24 hour, FaSSIF, 37C; type: physicochemical; details: read-out: Equilibrium
[19] = DNDI: Protein binding in rat plasma; type: ADME, cell-free; details: read-out: % bound
[20] = DNDI: Solubility, 24 hour, FeSSIF, 37C; type: physicochemical; details: read-out: Equilibrium
[21] = as §2; type: ADME, Canis lupus familiaris, Microsome; details: dog, microsomes
[22] = DNDI: Protein binding 10% serum RPMI; type: ADME; details: RPMI medium with 10% serum; read-out: % bound (converted)
[23] = as §1; type: ADME, cell-free; details: plasma
[24] = as §1; type: ADME, tissue-based, Canis lupus familiaris; details: dog, blood
[25] = (§7) DNDI: Cytotoxicity against L-6 rat myoblasts from skeletal musclE; details: L6 rat skeletal muscle myoblasts, IC50
[26] = DNDI: Lipophilicity in water; type: physicochemical
[27] = DNDI: Solubility, 24 hour, 50 mM Phosphate - pH 2, 37C; type: physicochemical; details: 50 mM phosphate buffer, read-out: Equilibrium
[28] = DNDI: Protein binding in human plasma; type: ADME, cell-free; details: read-out: % bound
[29] = as §1; type: ADME, cell-free, Canis lupus familiaris; details: dog, plasma
[30] = DNDI: Lipophilicity (eLogD) at pH 5; type: physicochemical; details: buffer
[31] = DNDI: Solubility, 24 hour, SGF, 37C; type: physicochemical; details: read-out: Equilibrium
in vitro [32] = details: mouse, microsomes; remark: listed apart in the source
[33] = DNDI: Protein binding in human liver microsomes; type: ADME, Microsome; details: read-out: % bound (converted)
[34] = as §5; type: physicochemical
in vitro [35] = details: human, microsomes; remark: listed apart in the source
[36] = as §4; type: physicochemical; details: buffer
[37] = test system: Trypanosoma brucei rhodesiense; assay: DNDI: HAT in Vitro; type: functional, organism-based; details: ATCC 30027
Cytochrome P450 3A4 [38] = molecular target: T2, Cytochrome P450 3A4 (Homo sapiens, UniProt P08684); assay: as §6; type: ADME
T2 sequence (P08684 whole entry): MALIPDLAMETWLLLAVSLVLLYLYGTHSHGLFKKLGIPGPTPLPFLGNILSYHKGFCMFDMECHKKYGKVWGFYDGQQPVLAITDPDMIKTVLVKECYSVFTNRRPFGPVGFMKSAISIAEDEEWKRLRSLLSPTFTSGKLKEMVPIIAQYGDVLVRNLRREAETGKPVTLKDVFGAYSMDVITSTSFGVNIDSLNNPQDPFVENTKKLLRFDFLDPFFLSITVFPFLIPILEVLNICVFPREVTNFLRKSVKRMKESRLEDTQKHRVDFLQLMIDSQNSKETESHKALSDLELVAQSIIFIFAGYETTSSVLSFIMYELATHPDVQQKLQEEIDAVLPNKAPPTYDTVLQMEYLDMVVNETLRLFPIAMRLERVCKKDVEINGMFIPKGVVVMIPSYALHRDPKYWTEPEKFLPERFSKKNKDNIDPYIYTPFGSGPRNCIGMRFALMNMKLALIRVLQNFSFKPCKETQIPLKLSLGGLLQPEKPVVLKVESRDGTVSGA

Cytochrome P450 3A4 [39] = molecular target: T2, Cytochrome P450 3A4
L6 = assay: as §7
[40] = Trypanosoma cruzi, Tulahuen C4 (LacZ)

Compound: FC(F)(F)c1ccc(N(c2cccnc2)C2CCN(c3ccc(C(F)(F)F)cn3)CC2)cc1
- remaining at 4 h ([1]; human): 101%
- remaining at 4 h ([1]; rat): 115%
- half-life [2]: 115 min
- microsomal CLint [2]: 15 µL/min/mg
- IC90 (Trypanosoma cruzi [3]): 31 nM and 25 nM
- solubility kinetic [4]: > 100 µg/mL
- solubility thermodynamic at 24 h [5]: < 0.25 µg/mL
- half-life (in vitro [6]): 45 min
- fraction unbound [7]: 0.01
- microsomal CLint (in vitro [8]): 39 µL/min/mg
- solubility thermodynamic at 24 h [9]: 53.1 µg/mL (≈ 114 µM)
- % inhibition (Leishmania donovani): 37.9%
- chromatographic logD [10]: 5
- pKa [11]: 2.41
- solubility kinetic [12]: < 1.6 µg/mL
- IC50 (Trypanosoma cruzi [13]): 17 nM
- IC50 (Trypanosoma cruzi [13]; [40]): 14 nM
- microsomal CLint (in vitro [14]): 25 µL/min/mg
- chromatographic logD [15]: > 5.3
- fraction unbound [16]: < 0.001
- IC50 (Cytochrome P450 1A2): > 20000 nM
- IC50 (Cytochrome P450 2D6): > 20000 nM
- chromatographic logD [17]: > 6.05
- solubility thermodynamic at 24 h [18]: < 0.25 µg/mL
- fraction unbound [19]: < 0.001
- solubility thermodynamic at 24 h [20]: 12.7 µg/mL (≈ 27.2 µM)
- half-life [21]: 73 min
- microsomal CLint [21]: 24 µL/min/mg
- fraction unbound [22]: 0.004
- remaining at 4 h ([23]; human): 97%
- remaining at 4 h ([23]; rat): 96%
- remaining at 4 h [24]: 108%
- IC50 [25]: > 100000 nM
- logD [26]: > 5.95
- solubility thermodynamic at 24 h [27]: 1430 µg/mL (≈ 3070 µM)
- fraction unbound [28]: < 0.001
- remaining at 4 h [29]: 102%
- chromatographic logD [30]: > 6.07
- solubility thermodynamic at 24 h [31]: 9680 µg/mL (≈ 20800 µM)
- half-life (in vitro [32]): 70 min
- fraction unbound [33]: 0.002

Compound: FC(F)(F)c1ccc(N(c2cncnc2)C2CCN(c3ccc(C(F)(F)F)cn3)CC2)cc1
- solubility kinetic [34]: < 1.6 µg/mL
- IC90 (Trypanosoma cruzi [3]): 10 nM
- IC90 (Trypanosoma cruzi [3]; [40]): 9.15 nM
- half-life (in vitro [6]): 56 min
- microsomal CLint (in vitro [8]): 30.9 µL/min/mg
- hepatic extraction ratio (in vitro [35]): 0.63
- chromatographic logD [36]: 5
- IC50 (Trypanosoma cruzi [13]): 5.4 nM and 5 nM
- IC50 (Trypanosoma cruzi [13]; [40]): 3.65 nM
- IC50 [37]: > 10000 nM
- IC50 [25]: 93200 nM

Compound: CC(C)(C)CC(=O)N1CCC(N(c2ccc(Cl)cc2)c2cccnc2)CC1
- half-life [2]: 4.9 min
- microsomal CLint [2]: 357 µL/min/mg
- hepatic extraction ratio [2]: 0.92
- IC90 (Trypanosoma cruzi [3]; [40]): 1.93 nM
- solubility kinetic [4]: > 100 µg/mL
- half-life (in vitro [6]): 9.9 min
- microsomal CLint (in vitro [8]): 175 µL/min/mg
- % inhibition (Leishmania donovani): 42.9%
- chromatographic logD [10]: 2.4
- hepatic extraction ratio (in vitro [35]): 0.91
- IC50 (Trypanosoma cruzi [13]; [40]): 0.595 nM
- IC50 (Cytochrome P450 3A4 [38]): 800 nM

Compound: O=C(c1ccccc1C(F)(F)F)N1CCC(N(c2ccc(C(F)(F)F)cc2)c2cccnc2)CC1
- half-life [2]: 24 min
- microsomal CLint [2]: 72.1 µL/min/mg
- hepatic extraction ratio [2]: 0.7
- IC90 (Trypanosoma cruzi [3]; [40]): 1.47 nM
- solubility kinetic [4]: > 100 µg/mL
- half-life (in vitro [6]): 7 min
- microsomal CLint (in vitro [8]): 247 µL/min/mg
- % inhibition (Leishmania donovani): 66.3%
- chromatographic logD [10]: 3.5
- IC50 (Cytochrome P450 3A4 [39]): 1700 nM
- hepatic extraction ratio (in vitro [35]): 0.93
- solubility kinetic [12]: 1.6 µg/mL (≈ 3.24 µM)
- IC50 (Trypanosoma cruzi [13]; [40]): 0.618 nM
- chromatographic logD [15]: 4.4

Compound: Cc1noc(C)c1C(=O)N1CCC(N(c2ccc(C(F)(F)F)cc2)c2cccnc2)CC1
- half-life [2]: 21.8 min
- microsomal CLint [2]: 79.3 µL/min/mg
- hepatic extraction ratio [2]: 0.72
- IC90 (Trypanosoma cruzi [3]): 47 nM and 8.38 nM
- solubility kinetic [4]: > 100 µg/mL
- half-life (in vitro [6]): 11.8 min
- microsomal CLint (in vitro [8]): 147 µL/min/mg
- chromatographic logD [10]: 2.4
- IC50 (Cytochrome P450 3A4 [39]): 2100 nM
- hepatic extraction ratio (in vitro [35]): 0.89
- solubility kinetic [12]: 12.5 µg/mL (≈ 28.1 µM)
- IC50 (Trypanosoma cruzi [13]): 8 nM and 3.04 nM
- chromatographic logD [15]: 3.5
- IC50 [25]: > 100000 nM
- IC50 (L6): 78500 nM

Compound: O=C(c1ccc(F)cc1)N1CCC(N(c2ccc(C(F)(F)F)cc2)c2cccnc2)CC1
- half-life [2]: 16.6 min
- microsomal CLint [2]: 105 µL/min/mg
- hepatic extraction ratio [2]: 0.77
- IC90 (Trypanosoma cruzi [3]): 20.7 nM
- IC90 (Trypanosoma cruzi [3]; [40]): 28 nM
- solubility kinetic [4]: > 100 µg/mL
- half-life (in vitro [6]): 13.2 min
- microsomal CLint (in vitro [8]): 131 µL/min/mg
- chromatographic logD [10]: 3.1
- IC50 (Cytochrome P450 3A4 [39]): 4400 nM
- hepatic extraction ratio (in vitro [35]): 0.88
- solubility kinetic [12]: 3.1 µg/mL (≈ 6.99 µM)
- IC50 (Trypanosoma cruzi [13]): 7.83 nM
- IC50 (Trypanosoma cruzi [13]; [40]): 15 nM
- chromatographic logD [15]: 4.1
- IC50 [25]: 54300 nM
- IC50 (L6): 44400 nM
